Experimental data taken from patent publication US5817757A, “Inhibitors of peptide binding to MHO class II proteins” (Merck & Co., Inc., priority 1996, dated 1998).
Like-named read-outs stand apart in the source and are kept apart here.

Biological target: T1, DR1Dw1 (Homo sapiens, UniProt P01903+P01911, A100R/D57E/F55L/F60I/F76Y/I96L/L162R/M171V/P40L/Q125E/R42F/V115G/Y59C)
T1 construct: these are Drosophila transmembrane DR; made in house; host or cells: Drosophila (cells)
Experiment: Inhibition of biotinylated RMBP 90-102 peptide binding to MHC class II DR1 (europium-streptavidin capture assay)
Procedure: In studies optimizing the assay it was determined that only between 5 to 10% of the DR molecules are capable of binding added peptide. Therefore, the effective concentration of DR1Dw1 and DR4Dw4 was approximately 0.125 and 1.0 nM, respectively. […] The DR-peptide complexes (50 μL) are transferred to wells of a 96-well EIA plate precoated with LB3.1, the monoclonal antibody which recognizes the DR alleles of MHC Class II, and blocked with PBS with fetal calf serum (FCS). An additional 50 μL of 50 mM Tris, pH 7.0, containing 0.75% octyl glucoside is added to each well and the mixture incubated overnight at 4° C. Excess peptide is removed by washing with PBS containing 0.05% Tween 20 (Polyoxyethylene sorbitan monolaurate) and 0.01% NaN3. Europium-labeled streptavidin (Wallac Inc.) is added and incubated overnight. After washing, complexes are measured by the addition of Enhance™ buffer, the tradename for 0.1M acetate phthalate buffer, pH 3.2, containing 0.1% Triton X-100, tradename for polyoxyethylene ethers and other surface active compounds of Union Carbide Chemicals and Plastics Co., Inc. (particularly, a non-ionic surfactant for recovery of membrane components under non-denaturing conditions) 15 μM 2-naphthoyltrifluoroacetone, and 50 μM tri-N-octylphosphine oxide, which buffer releases the chelated europium from streptavidin and forms a highly fluorescent micellar solution. The resultant fluorescence is measured using a fluorescent plate reader (e.g., DELPHIA, Wallac, Inc.). The data are analyzed using a four-parameter logistical curve […] program (e.g., SigmaPlot) that calculates the concentration of biotinylated peptide giving a half-maximal signal (ED50).
The inhibition assay format is identical to the procedure described above with the exception that the unlabeled antagonist is serially diluted and incubated with constant concentrations of biotinylated RMBP 90-102 (0.3 nM for DR1Dw1 or 0.9 nM for DR4Dw4) and the MHC class II proteins. The concentration of unlabeled compound that prevents 50% of the labeled peptide from binding is the IC50 value. The concentration of the biotinylated RMBP 90-102 in each assay is experimentally determined to be […] one-sixth of its measured ED50 to assure the inhibition was primarily measuring the binding characteristics of the competitor.
In particular, a protocol for carrying out the inhibition assay is given below.
Add 115 μL of 5μg/mL LB3.1 in 50 mM Tris HCl pH 9.6/azide to each well of a Costar EIA plate. Incubate the plate overnight at 4° C.
Wash the plate 4 times with water/0.05% Tween-20/azide. Add 200 μL of PBS /5% FCS/azide for 1 hour at 4° C. to block the plate. The plate may be held at this point for later use or used immediately.
Flip out the block. It is not necessary to wash the plate. At 50 μL of load buffer (50 mM Tris HCl, pH 8.0 0.75% octylglucoside). Add to this volume 50 μL of the reaction mix from day 2, step 3 below.
(1) Add the following to a polypropylene round bottom 96-well plate such as a Costar #3794:
(A) Diluent (Ca Mg free PBS adjusted to pH 6.5 with 0.1 M KH2 PO4/0.75% octylglucoside/azide).81 μL
(B) Competitor at 16.6 times the final concentration in diluent or diluent alone. 9 μL
(C) biotinylated rat myelin basic protein (BRMBP) 90-102; 1.5 nM for DR1 or 4.5 nM for DR4 (These are 5× stocks of final concentrations of 0.3 nM/DR1 or 0.9 nM/DR4) 30 μL
(D) 6.25 nM DR1Dw1 or 50 nM DR4Dw4 (these are Drosophila transmembrane DR) (This is a 5× stock of the final concentration of 1.25 or 10 nM.) 30 μL Add the DR last and mix well at this time 150 μL
(2) Incubate at 37° C. for 20 min and 5 hours.
(3) Add 50 μL of this reaction mixture to one well of the blocked antibody plate from day 2 above.
(4) Incubate overnight at 4° C. to capture the DR-peptide complexes.
(6) Add 125 μL of 100 ng/mL europium streptavidin (Wallac Inc.) in Ca Mg free PBS with 3.5 mg DTPA, 1.6 mL of 30% BSA/500 mL to each well.
(7) Incubate 2 to 4 hours at 4° C. […]

[1] = incubation at 37° C. for 20 min, 0.3 nM biotinylated RMBP 90-102, 1.25 nM DR1Dw1, pH 6.5, read-out: IC50 /μM @ 20'
[2] = incubation at 37° C. for 5 hours, 0.3 nM biotinylated RMBP 90-102, 1.25 nM DR1Dw1, pH 6.5, read-out: IC50 /μM @ 5h

Row | Compound | IC50 [1] [µM] | IC50 [2] [µM]
1 | CCCC(NC(=O)C(C)(C)NCCCC1CCCCC1)C(=O)NC(CC(C)C)C(N)=O (stereo not drawn) [Example 2, N-α((2-Methyl-2-((3-cyclohexyl)propylamino))-propanoyl)-Nva-Leu-NH2] | 0.26 | 1.59
2 | CCCC(NC(=O)C(Cc1cccnc1)NCCCC1CCCCC1)C(=O)NC1CCCCNC1=O (stereo not shown) [Example 5] | 0.21 | 1.43
3 | CCC[C@H](NC(=O)[C@H](CCCCN)NC(=O)C=Cc1ccccc1C)C(=O)N[C@@H](CC(C)C)C(N)=O [Example 13, α-[2-methylcinnamoyl]-Lys-Nva-Leu-NH2] | 0.25 | 1.7
4 | CCCC(NC(=O)C(CCCCN)NC(=O)CC(C)c1ccccc1)C(=O)NC(CC(C)C)C(N)=O (stereo not drawn) [Example 34, α-[3R-methyl-3-phenylpropionyl]-Lys-Nva-Leu-NH2] | 0.16 | 1.25
5 | CCCC(NC(=O)C(CCCCN)NCCCC1CCCCC1)C(=O)NN(CC(C)C)C(=O)OCC (stereo not drawn) [Example 48, α-[3 -Cyclohexylpropyl]-Lys-Nva-α-AzaLeu-OEt] | 0.15 | 0.68
6 | CCCCN(NC(=O)C(CCC)NC(=O)C(CCCCN)NCCCC1CCCCC1)C(=O)OCC (stereo not drawn) [Example 50, α-[3-Cyclohexylpropyl]-Lys-Nva-α-AzaNle-OEt] | 0.046 | 0.26
7 | α-[3-Phenylpropyl]-Lys-Nva-Leu-NH2 [Example 38] | 0.16 | 1.8

Stronger by IC50 [1], values ahead:

Row | IC50 [1] [µM] | IC50 [2] [µM] | Compound
8 | 0.04 | 0.187 | CCCC(NC(=O)C(CCCCN)NC(=O)CC(C)C1CCCCC1)C(=O)NC(CC(C)C)C(N)=O (stereo not drawn) [Example 36, α-[3R-methyl-3-cyclohexylpropionyl]-Lys-Nva-Leu-NH2]
9 | 0.03 | 0.14 | CCCCN(NC(=O)C(CCC)NC(=O)C(CCCCN)NCC1CCc2ccccc2C1)C(=O)OCC (stereo not drawn) [Example 52, α-[1,2,3,4-tetrahydronaphthyl-2-methyl]-Lys-Nva-α-AzaNle-OEt]
10 | 0.012 | 1.08 | α-[(1R,2S)-1-Cyclohexylcyclopropyl-1-carbonyl]-Lys-Nva-Leu-NH2 [Example 22]
11 | 0.0052 | 0.059 | CCCC(NC(=O)C(CCCCN)NCCCC1CCCCC1)C(=O)NC(CC(C)C)C(N)=O (stereo not drawn) [Example 40, α-[3-Cyclohexylpropyl]-Lys-Nva-Leu-NH2]
